Data: patent US20020045247A1, “METHODS FOR THE PREPARATION OF RETROVIRAL PARTICLES AND CELL LINES DEFICIENT IN THE ALPHA-GALACTOSYL EPITOPE” (priority 1997, published 2002)

Legend:
[1] = test system: complement-mediated inactivation of amphotropic retroviral particles in human serum; assay: Retrovirus killing assay in human serum preincubated with soluble carbohydrates; format: cell-based; details: for effect on complement-mediated retrovirus inactivation / retrovirus survival: 5 mg/ml carbohydrate preincubated with 40% human serum, titered on NIH/3T3 cells
Experimental: (§1) RVVP samples were assayed for titer of infectious RVVPs on NIH/3T3 cells (ATCC designation CCL 163). 2.5×10^4 cells were plated per well in 6-well plates with 2 ml of DMEM containing 10% fetal bovine serum (D10). The medium in each well was replaced with 2 ml of D10 containing 8 μg/ml of polybrene and retroviral particles were added. Ten-fold dilutions were made from the original well and plates were incubated for 24 h at 37° C. Medium was removed and 2 ml of D10 containing 500 μg/ml of G418 (active weight) was added. The cells were maintained under selection for 7 days with 2 changes of medium during this period. Finally, medium was removed and colonies were stained with methylene blue saturated methanol for 15 min. followed by a brief rinse in water. Wells containing less than 100 colonies were counted to determine titers.
Retroviral vector particles, including those from PA317 or PA317/H-transferase cells, (approximately 500 CFU) were incubated for 30 min. at 37° C. in 100 μl of 40% primate sera diluted in Hank's balanced salt solution (HBSS) and subsequently titered on NIH/3T3 cells to assess retrovirus survival as described above. The different primate sera included human (Diamedix, Cambridge, Mass.), chimpanzee (Southwest Foundation for Research, San Antonio, Tex.), baboon, squirrel monkey, owl monkey and tamarin (all from the New England Regional Primate Research Center, Southborough, Mass.). Data were calculated as percent retrovirus survival in the various sera relative to the number of input CFU (determined by incubation of virus in 40% heat inactivated human serum). […] In the anti-αgalactosyl antibody depletion experiments, retroviral particles were preincubated with either anti-αgalactosyl antibody (90 μg/ml) or buffer alone (PBS; BioWhittaker, Walkersville, Md.) for 30 min. at 37° C. before the addition of either 40% human serum, 40% human serum depleted of anti-αgalactosyl antibodies or 40% squirrel monkey serum for an additional 30 min. incubation. Retrovirus survival was then assessed as described above.

[2] = test system: inactivation of LXSN retroviral vector particles by human serum; assay: Inactivation of LXSN retroviral vector particles in human serum in the presence of added sugars (Example 2); format: cell-based; details: 0.3125, 0.625, 1.25, 2.5 and 5 mg/ml; 40% human serum; relative to samples without added sugars
Experimental: as §1
LXSN retroviral vector particles were prepared as described above. Aliquots of a 40% solution of human serum in HBSS were then incubated for 15 minutes at room temperature with added sugars. The sugars added were D-glucose (Mallinckrodt, Paris, Ky.) and galactose alpha-1,3 galactose (Dextra Laboratories, Reading, England), and were added at concentrations of 0.3125, 0.625, 1.25, 2.5, and 5 mg/ml. […] The results of these titrations were calculated as fold increase in retroviral vector particle survival relative to the control samples, and are set forth in FIG. 2.

α-glucosidase I = molecular target: T1, α-glucosidase I (Homo sapiens, UniProt Q13724); details: addition of inhibitor; cited from earlier work
T1 sequence (Q13724 1-837): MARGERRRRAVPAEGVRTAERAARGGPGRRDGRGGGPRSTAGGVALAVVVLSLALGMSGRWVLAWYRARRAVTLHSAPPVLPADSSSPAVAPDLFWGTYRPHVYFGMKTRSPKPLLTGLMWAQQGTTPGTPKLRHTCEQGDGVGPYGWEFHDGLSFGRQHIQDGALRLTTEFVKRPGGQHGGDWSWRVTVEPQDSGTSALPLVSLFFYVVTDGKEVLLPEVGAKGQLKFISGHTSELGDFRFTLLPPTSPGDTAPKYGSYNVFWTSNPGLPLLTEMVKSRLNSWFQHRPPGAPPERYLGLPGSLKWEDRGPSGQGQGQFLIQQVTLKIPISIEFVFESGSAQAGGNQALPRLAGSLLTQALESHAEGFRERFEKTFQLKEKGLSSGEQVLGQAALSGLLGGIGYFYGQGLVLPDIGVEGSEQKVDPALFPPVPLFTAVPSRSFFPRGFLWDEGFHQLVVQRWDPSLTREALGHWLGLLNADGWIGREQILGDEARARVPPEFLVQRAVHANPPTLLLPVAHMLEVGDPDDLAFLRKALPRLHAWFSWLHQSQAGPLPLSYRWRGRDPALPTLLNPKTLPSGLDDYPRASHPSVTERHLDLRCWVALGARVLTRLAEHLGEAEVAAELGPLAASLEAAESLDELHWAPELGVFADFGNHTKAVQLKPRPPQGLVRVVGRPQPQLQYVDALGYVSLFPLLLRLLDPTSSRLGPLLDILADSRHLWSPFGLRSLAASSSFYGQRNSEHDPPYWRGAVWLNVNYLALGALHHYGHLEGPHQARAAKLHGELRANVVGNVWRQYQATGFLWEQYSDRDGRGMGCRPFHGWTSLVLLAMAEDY

Golgi α-mannosidase II = molecular target: T2, Golgi α-mannosidase II (Homo sapiens, UniProt Q16706); details: addition of inhibitor; cited from earlier work
T2 sequence (Q16706 1-1144): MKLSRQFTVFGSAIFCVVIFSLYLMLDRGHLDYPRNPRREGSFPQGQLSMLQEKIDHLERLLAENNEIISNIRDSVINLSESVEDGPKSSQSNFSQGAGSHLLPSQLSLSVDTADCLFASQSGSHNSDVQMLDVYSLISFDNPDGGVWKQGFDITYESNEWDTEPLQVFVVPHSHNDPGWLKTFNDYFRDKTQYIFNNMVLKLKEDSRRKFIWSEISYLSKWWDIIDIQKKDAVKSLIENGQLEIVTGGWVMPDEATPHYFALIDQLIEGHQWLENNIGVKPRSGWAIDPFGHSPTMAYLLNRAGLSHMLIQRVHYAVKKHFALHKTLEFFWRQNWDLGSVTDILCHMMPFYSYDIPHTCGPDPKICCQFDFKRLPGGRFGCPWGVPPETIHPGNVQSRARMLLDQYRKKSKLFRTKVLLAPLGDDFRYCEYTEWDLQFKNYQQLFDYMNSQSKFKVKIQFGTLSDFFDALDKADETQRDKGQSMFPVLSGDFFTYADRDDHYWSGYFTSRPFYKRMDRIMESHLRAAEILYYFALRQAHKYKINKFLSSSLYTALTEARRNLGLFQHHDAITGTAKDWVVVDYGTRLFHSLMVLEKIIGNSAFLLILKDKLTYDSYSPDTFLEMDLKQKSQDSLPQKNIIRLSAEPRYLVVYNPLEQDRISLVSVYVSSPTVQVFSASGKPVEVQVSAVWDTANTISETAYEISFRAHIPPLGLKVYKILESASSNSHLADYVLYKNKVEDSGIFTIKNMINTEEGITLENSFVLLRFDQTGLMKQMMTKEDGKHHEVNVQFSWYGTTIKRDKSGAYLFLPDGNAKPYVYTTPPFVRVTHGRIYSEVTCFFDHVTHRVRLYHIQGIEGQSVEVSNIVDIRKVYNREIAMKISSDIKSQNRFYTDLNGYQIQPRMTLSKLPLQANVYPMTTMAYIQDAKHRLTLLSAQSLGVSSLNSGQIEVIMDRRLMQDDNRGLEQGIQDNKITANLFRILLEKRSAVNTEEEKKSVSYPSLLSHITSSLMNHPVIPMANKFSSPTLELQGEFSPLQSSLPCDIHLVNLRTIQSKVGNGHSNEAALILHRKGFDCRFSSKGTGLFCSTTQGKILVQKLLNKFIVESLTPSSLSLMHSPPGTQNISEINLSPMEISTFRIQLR

Golgi α-mannosidase I = details: addition of inhibitor; cited from earlier work

C[C@@H]1O[C@@H](O)[C@@H](O)[C@H](O)[C@@H]1O [α-L(−) fucose]
effect on complement-mediated retrovirus inactivation / retrovirus survival [1]: did not affect retrovirus survival

OC[C@H]1O[C@H](O[C@H]2[C@@H](O)[C@@H](CO)OC(O)[C@@H]2O)[C@H](O)[C@@H](O)[C@H]1O (stereo partly drawn) [Galα1-3Gal, galactose α1-3 galactose]
effect on complement-mediated retrovirus inactivation / retrovirus survival [1]: completely blocked complement-mediated virolysis | inhibition of retrovirus inactivation, dose dependence ([1]; various concentrations, 40% human serum): inhibited retrovirus inactivation in a dose-dependent manner | reduction of inactivation of retroviral vector particles by human serum [2]: substantially reduces the inactivation of the retroviral vector particles

O=C[C@H](O)[C@@H](O)[C@H](O)[C@H](O)CO [D(+) glucose]
effect on complement-mediated retrovirus inactivation / retrovirus survival [1]: did not affect retrovirus survival | reduction of inactivation of retroviral vector particles by human serum [2]: not

CN1C[C@H](O)[C@@H](O)[C@H](O)[C@H]1CO [N-methyldeoxynojirimycin]
activity of α-glucosidase I (α-glucosidase I): greatly reduced

OC[C@H]1O[C@@](CO)(O[C@H]2O[C@H](CO)[C@@H](O)[C@H](O)[C@H]2O)[C@@H](O)[C@@H]1O [sucrose]
effect on complement-mediated retrovirus inactivation / retrovirus survival [1]: did not affect retrovirus survival

O[C@H]1[C@H]2[C@H](O)CCCN2C[C@H]1O [swainsonine]
activity of Golgi α-mannosidase II (Golgi α-mannosidase II): greatly reduced

O[C@H]1[C@H](O)[C@@H](O)CN2CC[C@H](O)[C@H]12 [castanospermine]
activity of α-glucosidase I (α-glucosidase I): greatly reduced

OC[C@H]1NC[C@@H](O)[C@@H](O)[C@@H]1O [1-deoxymannojirimycin]
activity of Golgi α-mannosidase I (Golgi α-mannosidase I): greatly reduced

O=C[C@H](O)[C@@H](O)[C@@H](O)[C@H](O)CO [D(+) galactose]
inhibition at 5000 µg/mL ([1]; 5 mg/ml, 40% human serum): ~25%
